The source of these data is patent US5972873A, “4-substituted-phenyl-boronic acids as enzyme stabilizers” (Novo Nordisk A/S, priority 1995, dated 1999).

For test [1], the target named is T1, Savinase (Lederbergia lenta, UniProt P29600).
T1 sequence (P29600 1-269): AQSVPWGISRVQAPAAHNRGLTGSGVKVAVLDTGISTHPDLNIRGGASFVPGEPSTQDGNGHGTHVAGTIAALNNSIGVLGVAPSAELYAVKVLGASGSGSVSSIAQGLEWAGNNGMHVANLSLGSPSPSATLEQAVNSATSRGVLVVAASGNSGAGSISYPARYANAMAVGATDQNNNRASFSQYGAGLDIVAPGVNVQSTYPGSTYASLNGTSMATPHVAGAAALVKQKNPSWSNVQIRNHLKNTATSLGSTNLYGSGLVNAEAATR
The test can be described thus: Storage Stability Test in Liquid Detergent (Detergent base, US-type), Example 3. It is filed as biochemical. Also noted: purchased Novo Nordisk A/S. To be noted: for Improvement Factor (IFI): relative to Boric Acid, US-type detergent, 1% w/w Savinase (14 KNPU/g), stabilizer 5 mmole/kg (boric acid 160 mmole/kg), 0, 3, 7 and 14 days at 30° C. On the procedure: (§1) a) Storage Stability Test in Liquid Detergent: Enzyme(s) and stabilizer are added to a liquid detergent formulation and stored at well defined conditions. The enzyme activity of each enzyme is determined as a function of time, e.g. after 0, 3, 7 and 14 days.
(§2) To calculate the inhibition efficiency from the storage stability date a reaction mechanism is proposed.
(§3) From these reactions three coupled differential equations are derived describing the deactivation of P, L and PI. The reaction rate constants are derived from storage stability data by the use of a parameter estimation method (Gauss-Newton with the Levenberg modification). The storage stability data give the concentration of (P+PI) and L as a function of time.
(§4) Reaction IV is excluded from the system to reduce the number of parameters thereby describing the stability of the inhibited enzyme by only one reaction rate constant (from equation V).
(§5) In all experiments there is a large surplus of inhibitor molecules compared to protease molecules, i.e. a constant concentration of inhibitor (corresponding to the added amount of inhibitor) is a reasonable assumption.
(§6) An improvement factor is thus derived: [formula] IFI measures the inhibition efficiency given by the inhibition constants KI from reaction III.
Phenyl boronic acid derivatives were also tested in storage stability tests in liquid detergents using the method described previously under the following conditions: […]

A further test deals with subtilisin. To be noted: Keller et al, 1991; cited from earlier work.
Test [2] deals with T1, Savinase. Conditions: US-type detergent; 1% w/w Savinase (14 KNPU/g); 5 mmole/kg (boric acid 160 mmole/kg); 0, 2, 7 and 14 days at 30° C. On the procedure:
as §1, §2, §3, §4, §5, §6

In test [3] the target is T1, Savinase. Nature of the test: Determination of Ki: inhibition of Savinase (SAAPFpNA substrate). The test is classed as biochemical. Also noted: purchased Novo Nordisk A/S. Conditions: 0.1M Tris-HCl pH 8.6, 25° C. The text has this:
b) Determination of Ki : The inhibition constant Ki may be determined by using standard methods, for reference see Keller et al, Biochem. Biophys. Res. Com. 176, 1991, pp.401-405; J. Bieth in Bayer-Symposium "Proteinase Inhibitors", pp. 463-469, Springer-Verlag, 1974 and Lone Kierstein Hansen in "Determination of Specific Activities of Selected Detergent Proteases using Protease Activity, Molecular Weights, Kinetic Parameters and Inhibition Kinetics", PhD-report, Novo Nordisk A/S and University of Copenhagen, 1991.
The inhibition constant Ki for the inhibition of Savinase™ (available from Novo Nordisk A/S) was determined using standard methods under the following conditions: […]
The initial rate of substrate hydrolysis was determined at nine substrate concentrations in the range of 0.01 to 2 mM using a Cobas Fara automated spectrophotometer. The kinetic parameters Vmax and Km were determined using ENZFITTER (a non-linear regression data analysis program).
kcat was calculated from the equation Vmax =kcat X [Eo ]. The concentration of active enzyme [Eo ] was determined by active site titration using tight-binding protein proteinase inhibitors. The inhibition constant Ki was calculated from plots of Km /kcat as a function of the concentration of inhibitor. The inhibitors were assumed to be 100% pure and the molar concentrations were determined using weighing numbers and molecular weights.

The target in test [4] is T1, Savinase. The test can be described thus: Storage Stability Test in a Commercial Detergent (Omo Micro), Example 4. It is filed as biochemical. Also noted: purchased Novo Nordisk A/S. Conditions: 1.33 mM stabilizer (boric acid 160 mM), 1% w/w Savinase (8 KNPU/g), 1% w/w Lipolase (100 KLU/g), 0, 7, 15, and 21 days at 40° C. On the procedure: An improvement factor is thus derived: [formula]
The inhibition effectiveness IFI of 4-formyl-phenyl-boronic acid was also found in a commercial detergent Omo Micro.
Omo Micro was bought in a Danish supermarket. The enzymes were inactivated at 90° C. (overnight).
The following dosages in the detergent were used:
4-Formyl-phenyl-boronic acid: 1.33 mM, or
Protease: 1% w/w Savinase (8 KNPU/g), and
Lipase: 1% w/w Lipolase (100 KLU/g).
Storage: 0, 7, 15, and 21 days at 40° C.

The subject of a further test is proteolytic enzymes. Conditions: background statement; WO 92/19707 for aryl boronic acids; cited from earlier work.

In the case of `O=Cc1ccccc1B(O)O` [2-formyl-phenyl-boronic acid], at Savinase [1], the “Improvement Factor (IFI)” value stood at 36.
For `OB(O)c1cc(Cl)cc(Cl)c1` [3,5-dichlorophenylboronic acid], the “capacity as subtilisin inhibitor” value in the test on subtilisin was “particularly effective”.
For the compound `O=Cc1cccc(B(O)O)c1` [3-formyl-phenyl-boronic acid], the “Improvement Factor (IFI)” value on Savinase [1] was determined as 230.
On to `O=C(O)c1ccc(B(O)O)cc1` [4-Carboxybenzeneboronic acid], for which the IFI on Savinase [2] worked out at 22.
A word on the Ki: it is the equilibrium dissociation constant of an inhibitor or competing ligand from its target. In turn, `O=Cc1ccc(B(O)O)cc1` [4-formyl-phenyl-boronic acid, 4-Formyl-phenyl-boronic acid] came in with a Ki on Savinase [3] of 300 µM. For the same compound, on Savinase [1] (calculated on molar basis), the “storage stability properties versus 2-formyl-phenyl-boronic acid” value was “at least 25 times better”, the “storage stability properties versus 3-formyl-phenyl-boronic acid” value was “at least four times better” and the “storage stability properties versus acetamidophenyl boronic acid” value is recorded as “at least three times better”. At Savinase [1], the “Improvement Factor (IFI)” value came to 1000. Besides, the “inhibition effectiveness IFI” value against Savinase [4] came to 2500.
As for `OB(O)O` [Boric acid], in the test with proteolytic enzymes, the “inhibition of proteolytic enzymes” value is recorded as “reversibly inhibit proteolytic enzymes”.
At Savinase [3], `CC(=O)Nc1cccc(B(O)O)c1` [acetamidophenyl boronic acid] showed a Ki of 1000 µM. Also, the “Improvement Factor (IFI)” value at Savinase [1] is 300.
Take `CB(O)O` [methylboronic acid]: in the test with subtilisin, the “capacity as subtilisin inhibitor” value is given as “poorest inhibitor”.
